Measurements: the NIST ThermoML archive (doi:10.1021/je801006q)

Legend:
[1] = 101.33 kPa, Liquid
[2] = xn = mol fraction of the nth substance listed; conditions: 101 kPa, Liquid
[3] = excess molar enthalpy (molar enthalpy of mixing); xn = mol fraction of the nth substance listed; conditions: 298.15 K, 101 kPa, Liquid, Calvet calorimetry

CCCCO [butan-1-ol]
[1]
Conditions	mass density [kg/m3]	viscosity [mPa·s]
293.15 K	809.52	2.941
298.15 K	805.54	2.572
303.15 K	801.92	2.275

O=C1CCCN1 [2-pyrrolidinone] + CC(C)CO
[2]
Conditions	mass density, 293.15 K [kg/m3]	mass density, 298.15 K [kg/m3]	mass density, 303.15 K [kg/m3]	viscosity, 293.15 K [mPa·s]	viscosity, 298.15 K [mPa·s]	viscosity, 303.15 K [mPa·s]
x1 = 0.0889	824.77	821.28	817.86	3.624	3.033	2.921
x1 = 0.1776	848.94	845.47	842.04	3.381	2.802	2.596
x1 = 0.2378	865.74	862.31	858.86	2.987	2.57	2.409
x1 = 0.3009	883.75	880.34	876.86	2.87	2.483	2.167
x1 = 0.3978	912.12	908.8	905.28	2.787	2.487	1.789
x1 = 0.4456	926.49	923.19	919.66	2.833	2.483	1.75
x1 = 0.5106	946.36	943.11	939.59	3.145	2.736	1.783
x1 = 0.5844	969.46	966.29	962.76	3.686	3.262	2.118
x1 = 0.6489	990.11	987	983.49	4.428	3.966	2.645
x1 = 0.7126	1010.87	1007.83	1004.4	5.569	4.938	3.369
x1 = 0.7943	1038.14	1035.18	1031.8	7.61	6.753	4.876
x1 = 0.8564	1059.36	1056.43	1053.04	9.46	8.552	6.388
x1 = 0.9126	1078.91	1075.98	1072.53	11.57	10.27	8.021
x1 = 0.9753	1100.98	1098.14	1094.58	14.55	12.91	10.15

[3]
Conditions	excess molar enthalpy [kJ/mol]
x1 = 0.0522	0.121
x1 = 0.1222	0.214
x1 = 0.1812	0.272
x1 = 0.2451	0.299
x1 = 0.3296	0.313
x1 = 0.4043	0.31
x1 = 0.4535	0.297
x1 = 0.5022	0.278
x1 = 0.5912	0.244
x1 = 0.6807	0.204
x1 = 0.7402	0.18
x1 = 0.8466	0.12
x1 = 0.9233	0.0714

CCC(C)O (stereo unspecified) [butan-2-ol]
[1]
Conditions	mass density [kg/m3]	viscosity [mPa·s]
293.15 K	805.54	3.625
298.15 K	802.06	2.998
303.15 K	798.45	2.489

O=C1CCCN1 [2-pyrrolidinone] + CCCCO
[2]
Conditions	mass density, 293.15 K [kg/m3]	mass density, 298.15 K [kg/m3]	mass density, 303.15 K [kg/m3]	viscosity, 293.15 K [mPa·s]	viscosity, 298.15 K [mPa·s]	viscosity, 303.15 K [mPa·s]
x1 = 0.0956	834.48	830.55	826.97	3.3	2.884	2.456
x1 = 0.1784	856.72	852.86	849.3	3.346	3.05	2.431
x1 = 0.2445	874.89	871.15	867.57	3.373	3.071	2.433
x1 = 0.3055	892	888.27	884.73	3.548	3.028	2.504
x1 = 0.3874	915.45	911.87	908.31	3.595	3.119	2.638
x1 = 0.4434	931.79	928.29	924.72	3.893	3.426	2.899
x1 = 0.4996	948.45	945.03	941.5	4.198	3.74	3.211
x1 = 0.5944	977.19	973.95	970.39	5.167	4.682	3.921
x1 = 0.6573	996.67	993.5	990.11	6.087	5.497	4.578
x1 = 0.7236	1017.57	1014.53	1011.05	7.353	6.572	5.384
x1 = 0.7983	1041.7	1038.72	1035.32	9.017	8.117	6.428
x1 = 0.8554	1060.58	1057.59	1054.15	10.75	9.56	7.469
x1 = 0.9121	1079.61	1076.71	1073.26	12.57	11.01	8.726
x1 = 0.9778	1102.22	1099.35	1095.78	14.88	12.7	10.3

[3]
Conditions	excess molar enthalpy [kJ/mol]
x1 = 0.0564	0.0977
x1 = 0.1225	0.163
x1 = 0.1877	0.207
x1 = 0.2452	0.236
x1 = 0.3266	0.25
x1 = 0.3884	0.252
x1 = 0.4453	0.243
x1 = 0.5022	0.233
x1 = 0.5963	0.206
x1 = 0.6844	0.172
x1 = 0.7452	0.145
x1 = 0.8553	0.0949
x1 = 0.9278	0.0527
